Results published in patent US20220306585A1, “PYRAZOLE DERIVATIVES FOR CONTROLLING ARTHROPODS” (Bayer Animal Health GmbH, priority 2019, published 2022).

Experiments:
[1] = Measurement of stability of prodrugs in buffer at pH 7.4; type: physicochemical; details: PBS buffer pH 7.4, 37° C., HPLC peak area, read-out: % Recovery after 24 h (stability at pH 7.4)
In short: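 Test compound (0.15 mg) in DMSO/acetonitrile was mixed with PBS pH 7.4 and held at 37 °C for 24 h. Remaining compound was followed by HPLC as peak area percentage of total area. The final time point was also analysed by HPLC-MS.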

[2] = Degradation of prodrugs and release of parent drug in rat plasma; type: in vitro ADME; details: male, Hannover-Janvier RjHan, rat plasma (Li-heparin), 37° C., percent area of prodrug at t0
In short: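 Prodrug spiked into male Hannover rat Li-heparin plasma at 37 °C. Samples at 0.17–4 h quenched in acetonitrile/citric acid pH 3, then analysed by HPLC, with HPLC-MS at final time point. Prodrug loss and parent drug appearance given as percent area of prodrug at t0.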

recovery at 24 h, 0.1 mg/mL [1]: 97%
recovery at 0.17 h, 39 µg/mL ([2]; 0.17 h): 96%
recovery at 0.5 h, 39 µg/mL ([2]; 0.5 h): 85%
recovery at 1 h, 39 µg/mL ([2]; 1 h): 63%
recovery at 1.5 h, 39 µg/mL ([2]; 1.5 h): 49%
recovery at 2 h, 39 µg/mL ([2]; 2 h): 35%
recovery at 4 h, 39 µg/mL ([2]; 4 h): 14%
Compound: N#CC1(N(COC(=O)/C=C/C(=O)O)C(=O)c2cc(-c3cnn(-c4c(Cl)cc(C(F)(C(F)(F)F)C(F)(F)F)cc4OC(F)(F)F)c3)ccc2Cl)CC1 [Example 13, (2E)-4-{[(2-Chloro-5-{1-[2-chloro-4-(1,1,1,2,3,3,3-heptafluoropropan-2-yl)-6-(trifluoromethoxy)phenyl]-1H-pyrazol-4-yl}benzoyl)(1-cyanocyclopropyl)amino]methoxy}-4-oxobut-2-enoic acid]
